# Source: ChEMBL document CHEMBL1201862, “PubChem BioAssay data set” (2004)
# Active and inactive are the calls of the source.
# Columns and labels:
# Mu-type opioid receptor = Mu-type opioid receptor (Homo sapiens, UniProt P35372); test: (§1) Counterscreen for agonists of heterodimerization of the mu 1 (OPRM1) and delta 1 (OPRD1) opioid receptors: Luminescence-based cell-based high throughput dose response assay to identify agonists of OPRM1 homodimerization.; format: functional
# [1] = target: Delta-type opioid receptor (Homo sapiens, UniProt P41143); test: as §1, with “of OPRD1” for “of OPRM1”, “homodimerization. [Related pubchem assays (depositor defined):AID504326, AID504355, AID504692, AID504904, AID504905]” for “homodimerization.”; format: functional
# [2] = target: T1, Short transient receptor potential channel 4 (Mus musculus, UniProt Q9QUQ5); test: calcium entry via TRPC4 opening agents – cell-based, HEK293 TRPC4/mu-opioid, Fluo-4 calcium, dose response (AID 434937); format: functional
# T1 sequence (Q9QUQ5 whole entry): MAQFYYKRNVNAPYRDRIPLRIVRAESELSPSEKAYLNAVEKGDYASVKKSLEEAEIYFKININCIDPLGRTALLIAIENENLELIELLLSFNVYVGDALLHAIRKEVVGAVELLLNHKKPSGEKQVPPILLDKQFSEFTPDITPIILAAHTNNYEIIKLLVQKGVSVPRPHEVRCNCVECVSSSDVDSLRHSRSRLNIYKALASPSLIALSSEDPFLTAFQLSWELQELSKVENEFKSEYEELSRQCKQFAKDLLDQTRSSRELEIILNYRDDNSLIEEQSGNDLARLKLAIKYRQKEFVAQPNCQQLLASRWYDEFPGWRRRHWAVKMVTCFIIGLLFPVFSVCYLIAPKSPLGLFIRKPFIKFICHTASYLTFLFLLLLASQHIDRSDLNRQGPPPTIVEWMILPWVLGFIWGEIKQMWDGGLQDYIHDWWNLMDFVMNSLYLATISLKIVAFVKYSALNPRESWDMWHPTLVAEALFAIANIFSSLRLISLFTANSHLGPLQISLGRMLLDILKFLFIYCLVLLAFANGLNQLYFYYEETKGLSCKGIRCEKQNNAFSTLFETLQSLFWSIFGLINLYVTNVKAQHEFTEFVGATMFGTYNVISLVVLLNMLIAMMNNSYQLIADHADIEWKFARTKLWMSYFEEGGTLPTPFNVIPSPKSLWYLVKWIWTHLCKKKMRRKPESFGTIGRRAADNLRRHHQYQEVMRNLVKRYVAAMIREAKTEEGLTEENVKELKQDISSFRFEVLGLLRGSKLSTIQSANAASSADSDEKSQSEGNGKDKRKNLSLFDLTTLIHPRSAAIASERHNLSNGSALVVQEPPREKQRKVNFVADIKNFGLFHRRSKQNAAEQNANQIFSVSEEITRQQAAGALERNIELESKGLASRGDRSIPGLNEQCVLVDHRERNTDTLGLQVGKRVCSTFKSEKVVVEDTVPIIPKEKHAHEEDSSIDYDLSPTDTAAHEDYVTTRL
# [3] = target: 5-hydroxytryptamine receptor 5A (Homo sapiens, UniProt P47898); test: Counterscreen for agonists of OPRM1-OPRD1 heterodimerization: luminescence-based cell-based high throughput dose response assay to identify agonists of 5-hydroxytryptamine (serotonin) 5A receptor (HTR5A). [Related pubchem assays (depositor defined):AID504326, AID504355, AID504692, AID504904, AID504905]; format: functional
# [4] = HepG2 cell cytotoxicity, dose response, cytotoxicity control for non-replicating M. tuberculosis project (AID 489018); format: functional; conditions: Mycobacterium tuberculosis
# [5] = loss of viability in HepG2 cells – cell-based, CellTiter-Glo, cherry-picked, cytotoxicity control for Shn3 inhibitor project, dose response (AID 624134); format: functional
# [6] = reduction of Shn3 3'UTR-driven luciferase in osteoblasts – cell-based, Clone20 osteoblasts, firefly luciferase, cherry-picked, dose response (AID 624132); format: functional;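 note: firefly luciferase luminescence from reporter carrying the Shn3 3'UTR in osteoblasts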
# [7] = non-specific 3'UTR reporter inhibition in Clone20-Shn3RL – cell-based, Renilla luciferase, cherry-picked, counter-screen for Shn3 inhibitor project, dose response (AID 624133); format: functional
# [8] = target: T2, Microphthalmia-associated transcription factor (Homo sapiens, UniProt O75030); test: reducers of TRPM1 reporter luminescence, concentration series – cell-based, SK-MEL-5, cherry-picked, set 3, MITF inhibitor project, dose response (AID 493073); format: functional;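 note: SK-MEL-5 melanoma cells with luciferase driven by the MITF target TRPM1 promoter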
# T2 sequence (O75030 whole entry): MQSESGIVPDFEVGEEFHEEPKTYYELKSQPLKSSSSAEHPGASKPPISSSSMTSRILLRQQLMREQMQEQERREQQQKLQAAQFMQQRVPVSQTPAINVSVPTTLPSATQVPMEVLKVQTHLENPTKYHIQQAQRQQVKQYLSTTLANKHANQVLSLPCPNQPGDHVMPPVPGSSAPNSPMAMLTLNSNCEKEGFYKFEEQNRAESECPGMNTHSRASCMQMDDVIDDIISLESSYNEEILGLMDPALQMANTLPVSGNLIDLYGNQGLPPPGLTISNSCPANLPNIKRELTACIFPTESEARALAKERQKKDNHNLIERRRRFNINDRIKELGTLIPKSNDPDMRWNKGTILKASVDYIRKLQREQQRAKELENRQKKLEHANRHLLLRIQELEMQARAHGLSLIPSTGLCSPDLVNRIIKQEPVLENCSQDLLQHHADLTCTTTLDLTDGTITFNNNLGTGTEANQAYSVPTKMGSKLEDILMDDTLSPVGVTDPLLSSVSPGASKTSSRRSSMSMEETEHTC
# A-375 = test: proliferation inhibition in MITF-low A375 cells – cell-based, cherry-pick samples, set 2, counter-screen for MITF modulator project, dose response (AID 540335); format: functional; conditions: Homo sapiens
# [9] = Vero E6 cell cytotoxicity, dose response, cytotoxicity control for non-replicating M. tuberculosis project, secondary assay (AID 492998); format: functional, VeroE6; conditions: Vero C1008
# [10] = microbe, parasite or virus in culture; format: functional; conditions: Mycobacterium tuberculosis
# [11] = THP-1 cell cytotoxicity, dose response, cytotoxicity control for non-replicating M. tuberculosis project (AID 489025); format: functional
# cells = format: functional
# [12] = target: T3, High affinity choline transporter 1 (Homo sapiens, UniProt Q9GZV3); test: human choline transporter blockers, potency – cell-based, 5-point CRC, membrane potential dye, dose response (AID 504840); format: functional
# T3 sequence (Q9GZV3 whole entry): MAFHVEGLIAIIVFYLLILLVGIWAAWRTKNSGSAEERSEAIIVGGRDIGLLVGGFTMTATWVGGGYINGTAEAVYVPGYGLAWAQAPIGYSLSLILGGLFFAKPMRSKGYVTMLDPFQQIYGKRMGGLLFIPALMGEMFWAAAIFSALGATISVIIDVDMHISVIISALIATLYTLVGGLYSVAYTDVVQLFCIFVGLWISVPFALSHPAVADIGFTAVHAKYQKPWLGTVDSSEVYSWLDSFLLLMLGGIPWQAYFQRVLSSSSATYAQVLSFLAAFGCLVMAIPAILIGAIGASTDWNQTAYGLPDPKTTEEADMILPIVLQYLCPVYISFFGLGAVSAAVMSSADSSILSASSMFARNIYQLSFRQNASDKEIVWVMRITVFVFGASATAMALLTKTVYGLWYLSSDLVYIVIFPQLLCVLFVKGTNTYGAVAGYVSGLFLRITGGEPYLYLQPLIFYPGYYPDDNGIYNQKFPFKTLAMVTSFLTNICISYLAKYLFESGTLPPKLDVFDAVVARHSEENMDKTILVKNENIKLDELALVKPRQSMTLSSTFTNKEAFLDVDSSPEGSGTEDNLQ
# [13] = Luminescence Cell-Based Dose Retest to Confirm Inhibitors of Cancer Stem Cells. [Related pubchem assays (depositor defined):AID2717, AID2721]; format: functional; conditions: Homo sapiens
# [14] = target: C-C chemokine receptor type 6 (Homo sapiens, UniProt P51684); test: antagonism of CCR6 beta-arrestin recruitment – cell-based, luminescent beta-arrestin readout, dose response (AID 504728); format: functional
# [15] = target: T4, Heat shock factor protein 1 (Mus musculus, UniProt P38532); test: decrease of HSF1-responsive luciferase luminescence – cell-based, NIH3T3, dose retest, confirmation (AID 2382); format: functional;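 note: NIH3T3 fibroblasts with HSF1-driven luciferase reporter stressed by proteasome inhibitor MG132; luminescence from HSF1-driven luciferase expression after 8 hours of MG132 stress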
# T4 sequence (P38532 whole entry): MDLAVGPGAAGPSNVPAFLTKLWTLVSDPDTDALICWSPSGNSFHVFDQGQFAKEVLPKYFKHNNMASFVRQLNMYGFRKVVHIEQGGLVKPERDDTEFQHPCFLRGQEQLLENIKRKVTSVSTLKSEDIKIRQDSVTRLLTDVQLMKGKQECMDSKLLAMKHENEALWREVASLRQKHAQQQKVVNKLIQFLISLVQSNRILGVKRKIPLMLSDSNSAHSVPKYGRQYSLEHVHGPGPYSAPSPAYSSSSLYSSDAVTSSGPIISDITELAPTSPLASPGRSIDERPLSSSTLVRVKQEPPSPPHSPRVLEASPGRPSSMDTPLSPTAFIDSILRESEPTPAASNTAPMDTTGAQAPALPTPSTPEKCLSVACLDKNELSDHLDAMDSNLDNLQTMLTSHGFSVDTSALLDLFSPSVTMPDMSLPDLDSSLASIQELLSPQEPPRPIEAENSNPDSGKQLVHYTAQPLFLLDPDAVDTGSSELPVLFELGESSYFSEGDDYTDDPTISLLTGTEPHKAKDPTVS
# Paired box protein Pax-8 = Paired box protein Pax-8 (Homo sapiens, UniProt Q06710); test: PAX8 transcriptional activity inhibition in RMG-I – RMG-I cells, luciferase, cherry-pick, dose response (AID 687027); format: functional, cell-based;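 note: luciferase reporter driven by Pax8 target thyroperoxidase promoter measured by SteadyGlo luminescence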
# [16] = general cell-killing toxicity readout – plate reader, dry powder samples, cytotoxicity control for PAX8 inhibitor project, dose response (AID 743021); format: functional, cell-based
# INS1 = test: INS-1E survival protection against cytokine death – cell-based, luminescence, retest, dose response (AID 449756); format: functional; conditions: Rattus norvegicus;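 note: cell death triggered by IL-1 beta plus TNF-alpha plus IFN-gamma mixture; protective hits raise ATP signal compared with cytokine alone wells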
# Beta-galactosidase = Beta-galactosidase (Escherichia coli, UniProt Q8VNN2); test: detection-enzyme interference by beta-gal modulators – biochemical, E. coli enzyme, set 3, artefact control for CCR6 antagonist project, dose response (AID 504712); format: functional
# [17] = NIH3T3 cell viability loss – ATP luminescence, mouse fibroblasts, counter-screen, dose response (AID 2010); format: functional, cell-based;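 note: cells exposed to compound for about 90 hours before reading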
# [18] = Trypanosoma cruzi growth suppression in host cells – NIH3T3 host cells, beta-gal luminescence, confirmation (AID 2044); format: functional, cell-based;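 note: intracellular parasites grown in NIH/3T3 mouse fibroblasts as host cells; luminescent beta-galactosidase reporter signal from transgenic T. cruzi replicating inside host cells; inhibitors lower the luminescence signal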
# Beta-galactosidase, sequence (Q8VNN2 whole entry): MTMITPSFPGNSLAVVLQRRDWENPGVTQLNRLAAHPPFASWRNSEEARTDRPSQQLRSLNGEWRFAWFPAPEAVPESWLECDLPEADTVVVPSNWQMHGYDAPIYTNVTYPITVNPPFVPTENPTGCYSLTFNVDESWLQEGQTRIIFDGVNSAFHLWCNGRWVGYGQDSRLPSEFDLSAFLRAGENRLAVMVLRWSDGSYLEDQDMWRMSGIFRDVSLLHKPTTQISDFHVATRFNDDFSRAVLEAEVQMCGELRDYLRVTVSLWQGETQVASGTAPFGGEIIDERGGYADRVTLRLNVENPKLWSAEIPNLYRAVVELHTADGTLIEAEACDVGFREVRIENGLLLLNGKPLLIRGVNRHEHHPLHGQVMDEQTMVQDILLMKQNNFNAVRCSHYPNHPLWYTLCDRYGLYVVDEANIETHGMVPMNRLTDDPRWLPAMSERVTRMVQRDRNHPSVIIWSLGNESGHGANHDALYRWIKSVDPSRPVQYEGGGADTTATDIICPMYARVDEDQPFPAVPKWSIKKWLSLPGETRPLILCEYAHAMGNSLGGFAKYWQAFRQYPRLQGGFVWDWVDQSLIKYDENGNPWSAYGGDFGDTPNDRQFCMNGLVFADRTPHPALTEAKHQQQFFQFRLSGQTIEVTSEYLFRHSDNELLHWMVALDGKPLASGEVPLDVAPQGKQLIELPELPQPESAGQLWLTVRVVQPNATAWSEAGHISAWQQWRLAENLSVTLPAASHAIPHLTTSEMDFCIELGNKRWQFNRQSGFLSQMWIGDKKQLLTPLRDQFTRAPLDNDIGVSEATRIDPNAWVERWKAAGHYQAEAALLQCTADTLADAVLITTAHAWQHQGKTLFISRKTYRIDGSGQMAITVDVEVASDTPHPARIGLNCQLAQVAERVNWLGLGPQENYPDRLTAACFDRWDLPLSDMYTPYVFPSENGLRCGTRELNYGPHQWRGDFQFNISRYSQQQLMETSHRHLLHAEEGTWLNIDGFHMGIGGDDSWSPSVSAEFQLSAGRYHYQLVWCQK
# 5-hydroxytryptamine receptor 5A, sequence (P47898 whole entry): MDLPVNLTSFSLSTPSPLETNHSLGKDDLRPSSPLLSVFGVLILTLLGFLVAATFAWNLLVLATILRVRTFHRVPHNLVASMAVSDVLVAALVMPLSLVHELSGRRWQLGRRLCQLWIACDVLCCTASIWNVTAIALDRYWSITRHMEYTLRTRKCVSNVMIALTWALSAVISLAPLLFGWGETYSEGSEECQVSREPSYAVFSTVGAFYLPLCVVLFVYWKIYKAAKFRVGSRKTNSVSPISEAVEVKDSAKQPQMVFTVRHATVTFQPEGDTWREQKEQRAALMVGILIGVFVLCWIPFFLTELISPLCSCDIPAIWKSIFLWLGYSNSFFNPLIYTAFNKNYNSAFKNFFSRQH
# Delta-type opioid receptor, sequence (P41143 whole entry): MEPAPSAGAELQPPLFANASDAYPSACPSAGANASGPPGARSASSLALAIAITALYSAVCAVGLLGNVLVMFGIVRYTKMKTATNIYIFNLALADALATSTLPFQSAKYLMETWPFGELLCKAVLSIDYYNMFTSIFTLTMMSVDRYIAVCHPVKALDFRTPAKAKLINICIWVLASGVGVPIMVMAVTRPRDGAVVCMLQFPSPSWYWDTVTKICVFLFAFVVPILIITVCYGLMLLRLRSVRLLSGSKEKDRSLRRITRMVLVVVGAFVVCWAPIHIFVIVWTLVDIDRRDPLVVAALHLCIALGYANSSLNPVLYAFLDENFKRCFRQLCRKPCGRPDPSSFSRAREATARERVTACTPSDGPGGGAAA
# Paired box protein Pax-8, sequence (Q06710 whole entry): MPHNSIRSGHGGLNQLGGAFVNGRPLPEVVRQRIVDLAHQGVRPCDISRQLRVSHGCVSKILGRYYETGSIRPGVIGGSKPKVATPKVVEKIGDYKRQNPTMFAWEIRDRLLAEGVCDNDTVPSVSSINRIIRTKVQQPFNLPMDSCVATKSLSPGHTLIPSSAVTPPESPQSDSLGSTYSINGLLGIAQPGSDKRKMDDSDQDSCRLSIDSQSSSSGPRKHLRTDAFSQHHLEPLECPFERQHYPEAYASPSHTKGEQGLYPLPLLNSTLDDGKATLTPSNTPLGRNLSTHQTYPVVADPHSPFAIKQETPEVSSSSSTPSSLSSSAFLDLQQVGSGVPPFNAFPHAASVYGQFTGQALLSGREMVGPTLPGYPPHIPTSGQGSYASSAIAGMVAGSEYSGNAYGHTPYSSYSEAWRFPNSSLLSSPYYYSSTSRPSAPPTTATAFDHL
# Mu-type opioid receptor, sequence (P35372 whole entry): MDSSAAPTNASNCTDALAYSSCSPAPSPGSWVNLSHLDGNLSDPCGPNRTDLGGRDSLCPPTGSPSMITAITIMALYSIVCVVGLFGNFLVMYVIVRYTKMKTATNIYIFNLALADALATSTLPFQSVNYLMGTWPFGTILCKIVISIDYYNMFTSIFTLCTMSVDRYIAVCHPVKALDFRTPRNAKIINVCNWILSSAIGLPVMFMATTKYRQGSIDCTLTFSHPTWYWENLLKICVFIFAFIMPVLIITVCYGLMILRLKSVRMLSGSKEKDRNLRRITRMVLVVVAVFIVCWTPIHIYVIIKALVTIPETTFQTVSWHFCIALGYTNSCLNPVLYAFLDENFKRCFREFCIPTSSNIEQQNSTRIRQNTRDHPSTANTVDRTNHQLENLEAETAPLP
# C-C chemokine receptor type 6, sequence (P51684 whole entry): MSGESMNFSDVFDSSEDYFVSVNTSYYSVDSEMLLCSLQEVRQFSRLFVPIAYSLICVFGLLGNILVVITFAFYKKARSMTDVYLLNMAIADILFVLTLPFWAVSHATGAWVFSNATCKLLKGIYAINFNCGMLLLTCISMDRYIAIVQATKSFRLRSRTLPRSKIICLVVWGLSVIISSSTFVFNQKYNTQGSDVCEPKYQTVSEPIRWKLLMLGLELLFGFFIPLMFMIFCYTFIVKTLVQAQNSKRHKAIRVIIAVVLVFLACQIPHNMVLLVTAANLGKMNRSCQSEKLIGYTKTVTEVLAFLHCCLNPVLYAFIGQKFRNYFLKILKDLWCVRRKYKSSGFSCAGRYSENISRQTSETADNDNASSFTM
structure (smiles),measurement,setting,value
COc1ccc(C(CNC(=O)c2ccc(S(=O)(=O)N(C)C)cc2)N(C)C)cc1 (stereo unspecified),EC50,Mu-type opioid receptor,> 92.5 µM (inactive)
same,EC50,[1],85.6 µM (inactive)
same,EC50,[2],1.5 µM (active)
same,EC50,[3],> 92.5 µM (inactive)
N=c1n(Cc2ccc(Cl)cc2)c2ccccc2n1CC(O)COc1ccccc1 (stereo unspecified),CC50,[4],8.02 µM (active)
same,AC50,[5],14.2 µM (active)
same,AC50,[6],2.34 µM (active)
same,AC50,[7],3.61 µM (active)
same,AC50,[8],9.25 µM (active)
same,AC50,A-375,13.9 µM (active)
same,CC50,[9],11.8 µM (active)
same,CC50,[10],11.6 µM (active)
same,CC50,[11],11.8 µM (active)
same,IC50,cells,14.1 µM (active)
same,IC50,[12],15 µM (active)
Cc1ccc(C(=O)N/C(=C\c2ccc(-c3ccc(Br)cc3)o2)C(=O)NCCCN(C)C)cc1,AC50,[13],2.81 µM (active)
same,IC50,[14],24.6 µM (inactive)
same,EC50,[15],24.1 µM (active)
same,AC50,Paired box protein Pax-8,17.4 µM (active)
same,AC50,[16],61.2 µM (active)
same,AC50,INS1,7.33 µM (active)
same,IC50,Beta-galactosidase,> 66.6 µM (inactive)
same,AC50,[8],6.84 µM (active)
same,AC50,A-375,17.7 µM (active)
same,EC50,[17],> 30 µM (not active)
same,EC50,[18],1.56 µM (active)
